According to PubChem BioAssay AID1966 (Sanford-Burnham Center for Chemical Genomics, 2009):
Activity calls are given as the source filed them. No rule for the calls is given here.

Target: Beta-galactosidase (Escherichia coli) (UniProt Q8VNN2)
Assay: inhibitors of purified bacterial beta-gal – biochemical, counter-screen, dose response (AID 1966)
Settings: purified E. coli beta-galactosidase enzyme activity

Chain of Beta-galactosidase (Escherichia coli) (Q8VNN2 whole entry, looked up): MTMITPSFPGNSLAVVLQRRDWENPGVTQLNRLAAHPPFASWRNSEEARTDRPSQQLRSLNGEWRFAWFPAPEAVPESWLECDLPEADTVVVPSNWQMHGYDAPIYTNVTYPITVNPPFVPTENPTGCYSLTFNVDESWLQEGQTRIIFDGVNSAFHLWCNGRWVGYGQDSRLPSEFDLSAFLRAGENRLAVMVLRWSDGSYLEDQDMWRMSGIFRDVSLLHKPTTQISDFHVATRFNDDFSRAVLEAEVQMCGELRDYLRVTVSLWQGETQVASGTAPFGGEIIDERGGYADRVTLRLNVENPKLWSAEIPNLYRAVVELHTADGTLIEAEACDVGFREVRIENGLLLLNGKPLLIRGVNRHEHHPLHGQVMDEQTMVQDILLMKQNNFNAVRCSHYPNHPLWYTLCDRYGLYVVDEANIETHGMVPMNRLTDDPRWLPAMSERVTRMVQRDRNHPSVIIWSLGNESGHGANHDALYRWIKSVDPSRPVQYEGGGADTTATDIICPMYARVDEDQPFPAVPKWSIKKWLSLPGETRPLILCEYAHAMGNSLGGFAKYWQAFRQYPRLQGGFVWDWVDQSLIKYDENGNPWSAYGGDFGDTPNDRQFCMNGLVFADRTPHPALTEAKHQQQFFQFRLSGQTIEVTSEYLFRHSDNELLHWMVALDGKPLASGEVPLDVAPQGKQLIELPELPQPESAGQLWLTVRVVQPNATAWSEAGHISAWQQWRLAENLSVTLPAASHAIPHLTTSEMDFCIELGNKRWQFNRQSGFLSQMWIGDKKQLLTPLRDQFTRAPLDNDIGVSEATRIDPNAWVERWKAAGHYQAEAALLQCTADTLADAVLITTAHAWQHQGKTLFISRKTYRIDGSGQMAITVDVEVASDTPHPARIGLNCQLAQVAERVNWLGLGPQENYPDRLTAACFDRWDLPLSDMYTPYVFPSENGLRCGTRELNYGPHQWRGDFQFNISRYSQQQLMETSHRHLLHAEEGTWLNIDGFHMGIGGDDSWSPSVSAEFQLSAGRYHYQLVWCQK

## CCNC(=O)C1CCCN1C(=O)C(CCCN=C(N)N)NC(=O)C(CC(C)C)NC(=O)C(Cc1cn(Cc2ccccc2)cn1)NC(=O)C(Cc1ccc(O)cc1)NC(=O)C(CO)NC(=O)C(Cc1c[nH]c2ccccc12)NC(=O)C(Cc1cnc[nH]1)NC(=O)C1CCC(=O)N1 (stereo unspecified)
  IC50: > 31.5 µM (inactive)
